Results: ChEMBL document CHEMBL5303573, “Mapping human microbiome drug metabolism by gut bacteria and their genes” (Nature, 2019)

Columns and labels:
[1] = The drug is tested on Bifidobacterium breve strain: DSM20213 for biotransformation. The drug concentrations were measured before and after a 12-h incubation by liquid-chromatography-coupled mass spectrometry (LC–MS); conditions: 2 µM
[2] = The drug is tested on Bacteroides coprophilus strain: DSM18228 for biotransformation. The drug concentrations were measured before and after a 12-h incubation by liquid-chromatography-coupled mass spectrometry (LC–MS); conditions: 2 µM
[3] = The drug is tested on Bacteroides dorei strain: DSM17855 for biotransformation. The drug concentrations were measured before and after a 12-h incubation by liquid-chromatography-coupled mass spectrometry (LC–MS); conditions: phocaeicola dorei, 2 µM
[4] = The drug is tested on Bacteroides fragilis strain: HMW615 for biotransformation. The drug concentrations were measured before and after a 12-h incubation by liquid-chromatography-coupled mass spectrometry (LC–MS); conditions: 2 µM
[5] = The drug is tested on Bacteroides sp. WH2 strain: WH2 for biotransformation. The drug concentrations were measured before and after a 12-h incubation by liquid-chromatography-coupled mass spectrometry (LC–MS); conditions: bacteroides sp. wh2, 12 h, 2 µM
[6] = The drug is tested on Anaerococcus hydrogenalis strain: DSM7454 for biotransformation. The drug concentrations were measured before and after a 12-h incubation by liquid-chromatography-coupled mass spectrometry (LC–MS); conditions: 2 µM
[7] = The drug is tested on Clostridium symbiosum strain: ATCC14940 for biotransformation. The drug concentrations were measured before and after a 12-h incubation by liquid-chromatography-coupled mass spectrometry (LC–MS); conditions: 2 µM
[8] = The drug is tested on Enterococcus faecalis strain: V583 for biotransformation. The drug concentrations were measured before and after a 12-h incubation by liquid-chromatography-coupled mass spectrometry (LC–MS); conditions: 2 µM
[9] = The drug is tested on Eubacterium hallii strain: DSM3353 for biotransformation. The drug concentrations were measured before and after a 12-h incubation by liquid-chromatography-coupled mass spectrometry (LC–MS); conditions: anaerobutyricum hallii, 2 µM
[10] = The drug is tested on Edwardsiella tarda strain: ATCC23685 for biotransformation. The drug concentrations were measured before and after a 12-h incubation by liquid-chromatography-coupled mass spectrometry (LC–MS); conditions: 2 µM
[11] = The drug is tested on Enterobacter cancerogenus strain: ATCC35316 for biotransformation. The drug concentrations were measured before and after a 12-h incubation by liquid-chromatography-coupled mass spectrometry (LC–MS); conditions: 2 µM
[12] = bacteroides eggerthii, 12 h, 2 µM
Description: The drug is tested on Bacteroides eggerthii strain: DSM20697 for biotransformation. The drug concentrations were measured before and after a 12-h incubation by liquid-chromatography-coupled mass spectrometry (LC–MS)

[13] = The drug is tested on Bacteroides uniformis strain: ATCC8492 for biotransformation. The drug concentrations were measured before and after a 12-h incubation by liquid-chromatography-coupled mass spectrometry (LC–MS); conditions: 2 µM
[14] = The drug is tested on Odoribacter splanchnicus strain: fecal isolate for biotransformation. The drug concentrations were measured before and after a 12-h incubation by liquid-chromatography-coupled mass spectrometry (LC–MS); conditions: 2 µM
[15] = bacteroides fragilis, 12 h, 2 µM
Description: The drug is tested on Bacteroides fragilis strain: NCTC 9343 for biotransformation. The drug concentrations were measured before and after a 12-h incubation by liquid-chromatography-coupled mass spectrometry (LC–MS)

[16] = parabacteroides distasonis, 12 h, 2 µM
Description: The drug is tested on Parabacteroides distasonis strain: ATCC8503 for biotransformation. The drug concentrations were measured before and after a 12-h incubation by liquid-chromatography-coupled mass spectrometry (LC–MS)

[17] = limosilactobacillus reuteri cf48-3a, 12 h, 2 µM
Description: The drug is tested on Lactobacillus reuteri CF48-3A strain: BEI HM-102 for biotransformation. The drug concentrations were measured before and after a 12-h incubation by liquid-chromatography-coupled mass spectrometry (LC–MS)

[18] = The drug is tested on Eubacterium rectale strain: ATCC33656 for biotransformation. The drug concentrations were measured before and after a 12-h incubation by liquid-chromatography-coupled mass spectrometry (LC–MS); conditions: agathobacter rectalis, 2 µM
[19] = The drug is tested on Escherichia coli strain: BW25113 for biotransformation. The drug concentrations were measured before and after a 12-h incubation by liquid-chromatography-coupled mass spectrometry (LC–MS); conditions: 2 µM

Row | SMILES | Bacterial Biotransformation [1] | Bacterial Biotransformation [2] | Bacterial Biotransformation [3] | Bacterial Biotransformation [4] | Bacterial Biotransformation [5] | Bacterial Biotransformation [6] | Bacterial Biotransformation [7] | Bacterial Biotransformation [8] | Bacterial Biotransformation [9] | Bacterial Biotransformation [10] | Bacterial Biotransformation [11] | Bacterial Biotransformation [12] | Bacterial Biotransformation [13] | Bacterial Biotransformation [14] | Bacterial Biotransformation [15] | Bacterial Biotransformation [16] | Bacterial Biotransformation [17] | Bacterial Biotransformation [18] | Bacterial Biotransformation [19]
1 | CN(C)CCc1c[nH]c2ccc(Cn3cncn3)cc12.O=C(O)c1ccccc1 [RIZATRIPTAN BENZOATE] | Compound NOT metabolized | Compound metabolized | Compound NOT metabolized | Compound NOT metabolized | Compound NOT metabolized | Compound NOT metabolized | Compound NOT metabolized | Compound NOT metabolized | Compound NOT metabolized | Compound NOT metabolized | Compound NOT metabolized | Compound NOT metabolized | – | – | – | – | – | – | –
2 | N#Cc1ccc2[nH]cc(CCCCN3CCN(c4ccc5oc(C(N)=O)cc5c4)CC3)c2c1 [VILAZODONE] | Compound NOT metabolized | Compound metabolized | Compound metabolized | Compound metabolized | Compound metabolized | Compound NOT metabolized | Compound NOT metabolized | Compound metabolized | Compound NOT metabolized | Compound NOT metabolized | Compound NOT metabolized | Compound metabolized | Compound metabolized | Compound metabolized | Compound metabolized | Compound metabolized | Compound NOT metabolized | – | –
3 | CCN(CC)CCNC(C(=O)OCCC(C)C)c1ccccc1.Cl.Cl (stereo unspecified) | – | Compound NOT metabolized | – | Compound NOT metabolized | Compound NOT metabolized | Compound NOT metabolized | Compound NOT metabolized | Compound NOT metabolized | Compound NOT metabolized | Compound NOT metabolized | Compound NOT metabolized | Compound NOT metabolized | – | Compound NOT metabolized | – | Compound NOT metabolized | Compound NOT metabolized | – | –
4 | COc1cc2nc(N(C)CCCNC(=O)C3CCCO3)nc(N)c2cc1OC (stereo unspecified) [ALFUZOSIN] | – | Compound NOT metabolized | Compound metabolized | Compound NOT metabolized | Compound NOT metabolized | Compound NOT metabolized | Compound NOT metabolized | Compound NOT metabolized | Compound NOT metabolized | Compound NOT metabolized | – | Compound NOT metabolized | – | Compound NOT metabolized | Compound NOT metabolized | Compound NOT metabolized | Compound NOT metabolized | Compound NOT metabolized | Compound NOT metabolized
5 | CC(C)(C)NC[C@H](O)COc1nsnc1N1CCOCC1.O=C(O)/C=C\C(=O)O [TIMOLOL MALEATE] | Compound NOT metabolized | Compound NOT metabolized | Compound NOT metabolized | – | Compound NOT metabolized | Compound NOT metabolized | Compound NOT metabolized | Compound NOT metabolized | Compound NOT metabolized | Compound NOT metabolized | Compound NOT metabolized | Compound NOT metabolized | Compound NOT metabolized | Compound NOT metabolized | Compound NOT metabolized | Compound NOT metabolized | Compound NOT metabolized | Compound NOT metabolized | –
6 | CCCCCNC(=N)N/N=C/c1c[nH]c2ccc(OC)cc12.O=C(O)/C=C\C(=O)O [TEGASEROD MALEATE] | Compound NOT metabolized | Compound NOT metabolized | Compound NOT metabolized | Compound NOT metabolized | Compound NOT metabolized | Compound NOT metabolized | Compound NOT metabolized | Compound NOT metabolized | Compound NOT metabolized | Compound NOT metabolized | – | Compound NOT metabolized | Compound NOT metabolized | Compound NOT metabolized | Compound NOT metabolized | Compound NOT metabolized | Compound NOT metabolized | Compound NOT metabolized | Compound NOT metabolized
7 | CCOc1ccc(NC(C)=O)cc1 [PHENACETIN] | Compound NOT metabolized | Compound NOT metabolized | Compound NOT metabolized | Compound NOT metabolized | Compound NOT metabolized | Compound NOT metabolized | Compound NOT metabolized | Compound NOT metabolized | Compound NOT metabolized | Compound NOT metabolized | – | Compound NOT metabolized | Compound NOT metabolized | Compound NOT metabolized | Compound NOT metabolized | Compound NOT metabolized | Compound NOT metabolized | Compound NOT metabolized | Compound NOT metabolized
